Assay type in all cases: functional
Set-up in all cases: scale not given: the % may be the effect or the level left

In assay [1] the test system is Mycobacterium tuberculosis. The assay can be described thus: Antitubercular activity against Mycobacterium tuberculosis H37Rv assessed as reduction in RLU at 100 ug/mL after 72 hrs by luciferase reporter phage assay. A general note: A reporter such as luciferase makes a cellular process visible.
Assay [2] concerns Mycobacterium tuberculosis. The assay can be described thus: Antitubercular activity against Mycobacterium tuberculosis H37Rv assessed as reduction in RLU at 500 ug/mL after 72 hrs by luciferase reporter phage assay.
In assay [3] the test system is Mycobacterium tuberculosis. The assay can be described thus: Antitubercular activity against Mycobacterium tuberculosis H37Rv assessed as reduction in RLU at 2 ug/mL after 72 hrs by luciferase reporter phage assay.
Assay [4] deals with Mycobacterium tuberculosis. The assay can be described thus: Antitubercular activity against Mycobacterium tuberculosis H37Rv assessed as reduction in RLU at 0.5 ug/mL after 72 hrs by luciferase reporter phage assay.

SMILES strings stand for the structures.

With `N#Cc1c(-c2cccc(Cl)c2)[nH]c(=O)[nH]c1=O`, the Activity in assay [1] was found to be 54.28%; in assay [2] it was 61.02%.

`N#Cc1c(-c2ccc(Br)cc2)[nH]c(=S)[nH]c1=O`: the Activity in assay [1] is 75.73%; in assay [2] it was 82.04%.

As for `COc1ccc(-c2[nH]c(=O)[nH]c(=O)c2C#N)cc1O`, the figures for the Activity in assay [1] and in assay [2] were 33.4% and 48.72%, respectively.

Consider `CO[C@H]1/C=C/O[C@@]2(C)Oc3c(C)c(O)c4c(O)c(c(/C=N/N5CCN(C)CC5)c(O)c4c3C2=O)NC(=O)/C(C)=C\C=C\[C@H](C)[C@H](O)[C@@H](C)[C@@H](O)[C@@H](C)[C@H](OC(C)=O)[C@@H]1C` [RIFAMPIN], for which, in assay [3], the Activity is reported as 82.58%.

With `N#Cc1c(-c2ccc(F)cc2)[nH]c(=O)[nH]c1=O`, the figures for the Activity in assay [1] and in assay [2] were 46.49% and 44.2%, respectively.

For `NNC(=O)c1ccncc1` [ISONIAZID], the Activity in assay [4] came out at 98.42%.

Regarding `N#Cc1c(-c2ccc(Cl)cc2)[nH]c(=S)[nH]c1=O`, the Activity in assay [1] amounted to 46.21%; in assay [2], 65.23%.

The values above are taken from ChEMBL document CHEMBL2203181, “Microwave-assisted synthesis, molecular docking and antitubercular activity of 1,2,3,4-tetrahydropyrimidine-5-carbonitrile derivatives” (2012).
